Here are results for twelve compounds from BindingDB's records for doi:10.1021/jm0201924 (Senju Pharmaceutical, 2003).

What is called IC50 is the concentration that inhibits the measured activity by half. High values mean weaker potency, low ones greater potency.

The target of the experiment is Calpain-1 (Sus scrofa). Briefly: In vitro inhibition of porcine mu-calpain.
In the case of `CC(C)[C@H](NS(=O)(=O)c1ccc(Cl)cc1)C(=O)N[C@@H](C=O)Cc1ccccc1` [2-(4-Chloro-benzenesulfonylamino)-N-(1-formyl-2-phenyl-ethyl)-3-methyl-butyramide], it took 14 nM to reach half-maximal inhibition (IC50).
In the case of `CC(C)C[C@H](C=O)NC(=O)[C@@H](NS(=O)(=O)c1ccc(Cl)cc1)C(C)C` [2-(4-Chloro-benzenesulfonylamino)-N-(1-formyl-3-methyl-butyl)-3-methyl-butyramide], the IC50 was determined as 31 nM.
Compound `CC(C)[C@H](NS(=O)(=O)c1ccc(Cl)cc1)C(=O)N[C@@H](C=O)Cc1c[nH]c2ccccc12` [2-(4-Chloro-benzenesulfonylamino)-N-[1-formyl-2-(1H-indol-3-yl)-ethyl]-3-methyl-butyramide] yielded an IC50 of 13 nM. Compared with the last compound, the IC50 is about 2.4-fold lower.
Turning to `CC(C)[C@H](NS(=O)(=O)c1ccc(F)cc1)C(=O)N[C@H](C)C=O` [2-(4-Fluoro-benzenesulfonylamino)-3-methyl-N-(1-methyl-2-oxo-ethyl)-butyramide], the IC50 was 630 nM.
In turn, `CC(C)[C@H](NS(=O)(=O)c1ccc(F)cc1)C(=O)N[C@@H](C=O)Cc1ccccc1` [2-(4-Fluoro-benzenesulfonylamino)-N-(1-formyl-2-phenyl-ethyl)-3-methyl-butyramide] registered a 50% inhibitory concentration (IC50) of 27 nM.
The figure for `CC(C)[C@H](NS(=O)(=O)c1ccc(F)cc1)C(=O)N[C@@H](C=O)Cc1c[nH]c2ccccc12` [2-(4-Fluoro-benzenesulfonylamino)-N-[1-formyl-2-(1H-indol-3-yl)-ethyl]-3-methyl-butyramide] is 23 nM; for `CC(C)C[C@H](C=O)NC(=O)[C@H](C(C)C)N(C)S(=O)(=O)c1ccc(F)cc1` [2-[(4-Fluoro-benzenesulfonyl)-methyl-amino]-N-(1-formyl-3-methyl-butyl)-3-methyl-butyramide] it is 21000 nM.
Consider `CC(C)[C@H](NS(=O)(=O)c1ccc2ccccc2c1)C(=O)N[C@@H](C=O)Cc1ccccc1` [N-(1-Formyl-2-phenyl-ethyl)-3-methyl-2-(naphthalene-2-sulfonylamino)-butyramide], for which the IC50 came out at 14 nM.
For the compound `Cc1ccc(S(=O)(=O)N[C@H](C(=O)N[C@@H](C=O)Cc2ccccc2)C(C)C)cc1` [N-(1-Formyl-2-phenyl-ethyl)-3-methyl-2-(toluene-4-sulfonylamino)-butyramide], the midpoint of inhibition, the IC50, lay at 18 nM.
The figure for `CC(C)C[C@H](C=O)NC(=O)[C@@H](NS(C)(=O)=O)C(C)C` [N-(1-Formyl-3-methyl-butyl)-2-methanesulfonylamino-3-methyl-butyramide] is 830 nM; for `CC(C)C[C@H](C=O)NC(=O)[C@@H](NS(=O)(=O)c1ccc2ccccc2c1)C(C)C` [N-(1-Formyl-3-methyl-butyl)-3-methyl-2-(naphthalene-2-sulfonylamino)-butyramide] it is 10 nM; for `Cc1ccc(S(=O)(=O)N[C@H](C(=O)N[C@@H](C=O)CC(C)C)C(C)C)cc1` [N-(1-Formyl-3-methyl-butyl)-3-methyl-2-(toluene-4-sulfonylamino)-butyramide] it is 28 nM.
